From patent US4058621A, “Iron complexes and foodstuffs containing them” (priority 1975, dated 1977)

Legend:
[1] = maximum amount of iron which can be complexed with galacturonic acid; format: physicochemical
Experimental: 25.5 grams of high-purity galacturonic acid were dissolved in 300 ml of distilled water with the addition of solid sodium carbonate until a pH of 8 to 9 was reached. Separately, 24 grams of anhydrous ferric chloride were dissolved in 300 ml of distilled water and this solution was then added slowly, by dropping funnel, to the aforementioned solution of galacturonic acid, adjusting with solid sodium carbonate as needed to keep the mixture slightly alkaline, e.g. pH 8-9, and keeping the mixture stirred moderately. A beautiful brown-red solution was thus obtained. In order to ascertain the maximum amount of iron which can be complexed with galacturonic acid, a solution of 189.9 grams of anhydrous ferric chloride was dissolved in 1500 ml of distilled water, and this solution was added gradually to the above solution, with good stirring, and always adjusting the alkalinity to a pH of 8-9. […] A light-brown precipitate then appeared which, however, was dissolved again completely in about an hour's time and a perfectly clear, deep brown-red solution again resulted. From the total amounts of galacturonic acid used and ferric chloride solution consumed in the test, it was calculated that one mol weight of galacturonic acid will complex three atom weights of iron. Actually, 2,989 atom-weights of iron were consumed, an amount well within experimental error.

anemic rat = assay: curative test: bioavailability of iron / hemoglobin repletion in the anemic rat (cyanomethemoglobin method of Drabkin); format: in vivo, rat (male albino, Wistar-derived stock); details: for improvement in hemoglobin: 0.2 mg iron per day
Excerpt: The "curative" test results can be obtained in an oral administration technique, wherein the test animals are fed a prescribed iron-poor diet and are brought to an anemic condition through a controlled experimental technique. […] This test technique is generally standardized and has been used, with many variations, to determine bioavailability of iron in a variety of hematinics.
Reagent grade ferrous sulfate heptahydrate (Fisher Scientific Co.) was used without further purification at the calculated iron content of 20.1%.
Weanling male albino rats (Wistar-derived stock weighing between 45 and 55 grams) were placed in individual cages (newly galvanized) and provided with food and distilled water, ad libitum. The iron-low diet was that described by Pla and Fritz (J. Assoc. Offic. Anal. Chem. 54, 18 (1971). Weekly determination of hemoglobin content in tail blood was determined by the cyanomethemoglobin method of Drabkin adapted to 0.02 ml samples as recommended by these authors.
18 rats were selected for the test from a larger number to provide three matched groups of six, each having essentially equal initial hemoglobin values.
The solution prepared on Fridays was also dosed on Saturdays and Sundays. The solutions were administered by intragastric intubulation. The Negative Control Group received sham treatment consisting of plain water.
Body weights of all animals were recorded weekly and hemoglobin determinations were repeated after two and four weeks of dosing.

rats = details: oral ingestion; cited from earlier work
rabbits = details: intravenous route; cited from earlier work
humans = details: not without risk of some serious side effects; cited from earlier work

| Compound | iron actually consumed per mol weight of galacturonic acid ([1]; pH 8-9) | iron complexed per mol weight of galacturonic acid ([1]; pH 8-9, calculated from amounts consumed) | improvement in hemoglobin (anemic rat; after four weeks of dosing) | improvement in hemoglobin (anemic rat; after two weeks of dosing) | body weight gain (anemic rat; as compared to the Example 1 Group, differences were nominal) | efficacy in reversing mild deficiency anemia (anemic rat; conclusion of the test) | LD50 (rats) | LD50 (rabbits) | tolerated oral dosage (humans) |
| --- | --- | --- | --- | --- | --- | --- | --- | --- | --- |
| O=C[C@H](O)[C@@H](O)[C@@H](O)[C@H](O)C(=O)O [galacturonic acid] | 2,989 atom-weights of iron | three | – | – | – | – | – | – | – |
| ferrous sulfate | – | – | significant improvement | significant improvement | averaged slightly better | reversing mild deficiency anemia | 5,000 milligrams per kilogram of body weight | 99 milligrams per kilogram of body weight | about 300 milligrams |
